Results on one molecule are retold here after patent US9011945B2, “Composition and method for neuroprotection against excitotoxic injury” (priority 2008, dated 2015).

The subject of data set [1] is synaptosomal reactive oxygen species. Description: Synaptosomal reactive oxygen species formation, DCFH-DA (Example 1). The format is in vivo, mice. Particulars: mouse excitotoxic injury. On the procedure: (§1) Twenty-four hours after excitotoxic injury, mice were sacrificed by rapid decapitation under anesthesia. The lesioned (left) hemisphere was dissected into striatal and nonstriatal areas. The contralateral hemisphere was then dissected into the corresponding parts. Synaptosomes were prepared essentially as described previously (Andersen J M, Myhre O, Fonnum F. 2003. Discussion of the role of the extracellular signal-regulated kinase-phospholipase A2 pathway in production of reactive oxygen species in Alzheimer's disease. Neurochem Res 28: 319-326.). Briefly, different regions of the brain were removed and placed on ice. Specimens with the same areas and treatment conditions were pooled (n=2) and subjected to homogenization on ice in 10 volumes of 0.32M sucrose. Homogenates were centrifuged at 4° C. for 10 min at 600 g. […]
Dichlorofluorescein-diacetate (DCFH-DA), a nonfluorescent cell-permeable compound, diffuses passively across cell membranes. […] Plates were incubated with shaking at 37° C. for 30 min before measurement of fluorescence using a Microplate Fluorometer (Labsystems, Helsinki, Finland) with an excitation wavelength of 488 nm, an emission wavelength of 525 nm, and a band width of 5 nm. […] Synaptosomal protein concentration was determined with Pierce BCA reagents according to instructions provided. […]

In another data set the test system is NO levels. In words: NO levels of brain synaptosomes (Example 2). The format is in vivo, mice. The following applies: FIG. 11E.
The subject of data set [2] is mitochondrial membrane potential (ΔΨm). Description: Mitochondrial membrane potential, DiOC6(3) (Example 1). Particulars: striatum, 24 hr after excitotoxic injury; control group 85.06%±2.58%. The format is in vivo, mice. As to the method:
as §1, with “ice.” for “ice. Specimens with the same areas and treatment conditions were pooled (n=2) and subjected to homogenization on ice in 10 volumes of 0.32M sucrose. Homogenates were centrifuged at 4° C. for 10 min at 600 g.”
Mitochondrial membrane potential (ΔΨm) was measured using the fluorescent dye 3,3-diexyloxacarbocyanine iodide, DiOC6(3) (Chen Y C, Lin-Shiau S Y, Lin J K, 1998b. Involvement of reactive oxygen species and caspase 3 activation in arsenite-induced apoptosis. J Cell Physiol 177: 324-333.). Synaptosomes were prepared as described above and diluted 1:40 in Tris buffer, followed by the addition of DiOC6(3) to a final concentration of 1.5 M. After 20 min of incubation at 37° C., fluorescence was measured in a Microplate Fluorometer (Labsystems, Helsinki, Finland) with an excitation wavelength of 484 nm and an emission wavelength of 501 nm.

Data set [3] concerns intrasynaptosomal Ca2+ concentration. Description: Intrasynaptosomal Ca2+ concentration, Fluo-3/AM (Example 1). Format: in vivo, mice. The following applies: striatum, 4 hr after excitotoxic injury; control group 145.62%±7.16%; n=10. On the procedure:
Intrasynaptosomal Ca^2+ concentration [Ca^2+]i was determined with the calcium-sensitive fluorochrome fluo-3-acetoxymethyl (Fluo-3/AM) in the presence of acetoxymethyl ester. First, 100 L of P2 synaptosomes was prepared as described above, and 2.5 mM Fluo-3/AM (Sigma, St. Louis, Mo.) was added to each well (final reaction volume of 250 L) and incubated at 37° C. for 30 min. Fluorescence was measured in a Microplate Fluorometer (Labsystems, Helsinki, Finland) with an excitation wavelength of 490 nm and an emission wavelength of 526 nm.

For data set [4], the system named is NMDA-induced neurotoxicities. In words: Elevated plus maze with icv NMDA (Example 2).
Experimental: In this example, the combination of TP with M (memantine) in three different dosage ratios of 6:1, 3:1, and 10:1 respectively; these are TPM6 (TP 30 mg/kg/day:M 5 mg/kg/day), TPM3 (TP 15 mg/kg/day:M 5 mg/kg/day) and TPM10 (TP 30 mg/kg/day:M 3 mg/kg/day), respectively. Their neuroprotective effects were evaluated after pretreatment for fourteen days or one day prior to the intracerebroventricular injection (icy) of 8 mM NMDA (3 μl).
For testing, mice were individually placed in the center of the maze facing a closed arm and allowed 5 min of free exploration. The number of entries into open arms, the number of entries into closed arms, and the total time spent in the open arms and total time spent in the closed arms were measured. Entry was defined as all four paws in the arms.
The test system of data set [5] is mitochondrial succinate reductase. Description: Mitochondrial reductase activity, MTT test (Example 1). Format: in vivo, mice. The following applies: striatum, 24 hr after excitotoxic injury; control group 74.52%±4.86%. On the procedure:
as §1, with “g. The supernatant was then diluted 1:1 with 1.3M sucrose to obtain a suspension with a final sucrose concentration of 0.8M. This suspension was subjected to centrifugation at 20,000 g for 30 min at 4° C., yielding a myelin-rich supernatant and a pellet (P2) consisting of synaptosomes free of myelin.” for “g.”
Mitochondrial metabolic function was assessed by the conversion of the dye methylthiazoletetrazolium (MTT) to purple formazan. […] The formation of formazan was quantitated spectrophotometrically at 570 nm using a Microplate Reader.
(Tetrazolium assays rely on reduction of a dye to a coloured formazan, in cell work by metabolically active cells.)

Data set [6] relates to NMDA-decreased locomotor activities. In words: Open field locomotor activity test with icv NMDA (Example 2).
Experimental: In this example, the combination of TP with M (memantine) in three different dosage ratios of 6:1, 3:1, and 10:1 respectively; these are TPM6 (TP 30 mg/kg/day:M 5 mg/kg/day), TPM3 (TP 15 mg/kg/day:M 5 mg/kg/day) and TPM10 (TP 30 mg/kg/day:M 3 mg/kg/day), respectively.
A large colorless rectangular box with a metallic grid floor was used (70-cm wide, 90-cm long and 60-cm high). The photobeam activity monitors (TruScan coulbourn instruments) was used for measuring real-time X-Y activity track-type plots. Overall pulses were measured in an electromechanical counter as a gross measure of activity and recorded by a PC. Each mouse was allowed to move freely for 5 min but data were not scored, and then the number of squares crossed and the plots of tracking were counted during a period of 30 min for all experiments and quantification of data was by TruScan99 software.
Data set [7] has as its system excitotoxic injury (NMDA injected into the left striatum). In words: Locomotor activity test before and after intrastriatal NMDA excitotoxic injury (Example 1). The format is in vivo. Particulars: mice, oral gavage 2 days before intrastriatal NMDA; tested 24 hr after injury; n=8. An excerpt:
Memantine hydrochloride (>98.5% white crystalline powder) was supplied by Lotus Pharmaceutical Co., Ltd. (Taipei, Taiwan). Tea polyphenols were isolated from Longjing green tea with the following composition: epigallocatechin, 14.69%; catechin, 1.13%; epigallocatechin-3-gallate, 41.34%; epicatechin, 5.47%; gallocatechin-3-gallate, 5.16%; epicatechin-3 gallate, 12.54%; coffein, 0.95%; and other catechin derivatives, 18% (Yeh C W, Chen W J, Chiang C T, Lin-Shiau S Y, Lin J K. 2003. Suppression of fatty acid synthase in MCF-7 breast cancer cells by tea and tea polyphenols: a possible mechanism for their hypolipidemic effects. Pharmacogenomics J 3: 267-276.). Memantine (10 mg/kg/day), tea polyphenol (60 mg/kg/day), or a combination (memantine 5 mg/kg/day plus tea polyphenol 30 mg/kg/day) was dissolved in distilled water and administered by oral gavage for 2 consecutive days before causing excitotoxic injury. The experimental design had 5 groups: the sham operation group, the control group, the memantine group, the tea polyphenol group, and the tea polyphenol plus memantine group.
Weight and rectal temperature of each mouse were recorded before the surgical procedure. Anesthesia was induced with 5% chloral hydrate (400 mg/kg). […] Throughout the experimental procedure, mouse rectal temperature was monitored and maintained at 37.0° C.±0.5° C. […]

The subject of another data set is Mg2+-ATPase. In words: Mg2+-ATPase activity of synaptosomes after excitotoxic injury (Example 1). The format is in vivo, mice. Particulars: striatum synaptosomes 24 hr after excitotoxic injury. As to the method:
as §1, with “ice.” for “ice. Specimens with the same areas and treatment conditions were pooled (n=2) and subjected to homogenization on ice in 10 volumes of 0.32M sucrose. Homogenates were centrifuged at 4° C. for 10 min at 600 g.”
(§2) ATPase activity was determined by measuring the amount of inorganic phosphate (Pi) released from the substrate ATP according to a previously described colorimetric method. The method permitted the quantification of Na^+, K^+-ATPase and Mg^2+-ATPase activity in the same sample. […] Optical density at 630 nm was determined by an ELISA reader (Dynatech MR-7000). The absorbance values obtained were converted to activity values by linear regression using a standard curve for sodium monobasic phosphate included in the assay at various concentrations. […] Protein concentration was determined colorimetrically with a commercial bicinchoninic acid kit (Pierce, Rockford, Ill.).

In data set [8] the test system is NMDA-induced neurotoxicities. Description: Rotarod motor equilibrium performance with icv NMDA (Example 2).
Experimental: Their neuroprotective effects were evaluated after pretreatment for fourteen days or one day prior to the intracerebroventricular injection (icy) of 8 mM NMDA (3 μl).
One day before the experiment, mice were tested through ten consecutive sessions to stay on the rod and reach the cut off time of 180 s. One day after injection, mice were tested again. The retention time, defined as total time (sec) remaining on the rod, was recorded at each session.
The test system of data set [9] is NMDA-induced seizures (icv NMDA). Description: NMDA-induced seizure score (Example 2). Format: in vivo, mice. Particulars: pretreatment before icv 8 mM NMDA (3 μl); control vehicle 90±10%. An excerpt:
In NMDA-treated mice, seizures developed through a sequence of paroxysmal scratching, hypermotility and aircling, tonic-clonic convulsions and, occasionally, death. The following semi-quantitative scale was used for the examination of excitotoxic severity: 0, no response; 1, excessive grooming plus paroxysmal scratching; 2, mild hypermotility; 3, extensive hypermotility and circling; 4, forepaw clonus plus tail hypertonus; 5, generalized tonic-clonic convulsions; 6, “status epilepticus” and death (Marganella et al. 2005. Comparative effects of levobupivacaine and racemic bupivacaine on excitotoxic neuronal death in culture and N-methyl-D-aspartate-induced seizures in mice. Eur. J. Pharmacol. 518: 111-115). The latency (in sec) for generalized (clonic or tonic-clonic convulsions) seizures was also determined.

The next data set relates to Na+, K+-ATPase. Description: Na+, K+-ATPase activity of synaptosomes after excitotoxic injury (Example 1). The format is in vivo, mice. The following applies: striatum synaptosomes 24 hr after excitotoxic injury. As to the method:
as §1, with “ice.” for “ice. Specimens with the same areas and treatment conditions were pooled (n=2) and subjected to homogenization on ice in 10 volumes of 0.32M sucrose. Homogenates were centrifuged at 4° C. for 10 min at 600 g.”
as §2

Structures can show the parent of a compound that is named as a salt.

As to `CC12CC3CC(C)(C1)CC(N)(C3)C2` [memantine, Memantine hydrochloride], the “effect on increased synaptosomal ROS production” value in [1] is recorded as “does not have any significant effects”. Further, the “NO levels of brain synaptosomes increased by NMDA” value in the data set on NO levels is “decreased”. Moreover, the “mitochondrial membrane potential (ΔΨm)” value in data set [2] is on record as 94.23%±4.19%. The “intrasynaptosomal Ca2+ concentration [Ca2+]i” value in [3] is listed as 123.04%±6.70%. For the same molecule, the “attenuation of increased retention time in the opened plus maze by NMDA” value in data set [4] (drug one day before and consecutive 14 days following NMDA, FIG. 10C) was “followed in order by TPM6, TPM10 and then M”. Also, the “retention time in the open field of elevated plus maze, drug alone” value in data set [4] (prolonged use alone, FIG. 8C) is reported as “prominently increased retention time”. Besides, the “mitochondrial reductase activity (MTT test)” value in data set [5] was 93.53%±8.53%. Further, the “locomotor activities in the open field, drug alone” value in data set [6] (consecutive 14 days, before NMDA, FIG. 7) is listed as “increased locomotor activities”. Also, the “reversal of decreased locomotor activities induced by NMDA” value in [6] (drug one day before and consecutive 14 days following NMDA, FIG. 10A) is given as “partially reversed”. For the same molecule, in data set [6] (drug one day before and consecutive 14 days following NMDA, FIG. 10B), the “reversal of decrease in jump activity induced by NMDA” value is given as “partially reversed”. The “order of neuroprotective potencies against NMDA-decreased locomotor activities” value in data set [6] (pretreatment 14 days, FIG. 8A) is reported as “TPM10>TPM6>TPM3>M”. For the same molecule, the “order of neuroprotective potencies against the decreased jump exploratory effect of NMDA” value in [6] (pretreatment 14 days, FIG. 8B) was “M>TPM6>TPM3>TPM10”. Moreover, the “NMDA-decreased locomotor activities, prevention by pretreatment” value in [6] (pretreatment 14 days, icv 3 μl of 8 mM NMDA) is “prevented”. Besides, the “decrease in jump activity, drug alone” value in [6] (pretreatment alone for consecutive 14 days, FIG. 8B) is “TPM6>M>TPM10”. Further, the “improvement of impaired locomotor activity after excitotoxic injury” value in [7] is “substantial but nonsignificant improvement”. For the same molecule, in the data set with Mg2+-ATPase, the “attenuation of decreased Mg2+-ATPase activity” value was “only minimally attenuated”. Besides, the “reversal of disturbance in rotarod motor equilibrium function induced by NMDA” value in data set [8] (drug one day before and consecutive 14 days following NMDA, FIG. 10D) is listed as “reversed”. For the same molecule, the “motor equilibrium function, drug alone” value in data set [8] (prolonged use alone, FIG. 8D) was “reduced the motor equilibrium function”. The “attenuations of NMDA-induced seizure scores in percentage” value in data set [9] was 60±10%. Further, the “attenuation of decreased Na+, K+-ATPase activity” value in the data set on Na+, K+-ATPase is given as “only minimally attenuated”.
